Measured values reported in patent US12234466B2, “Aspergillus microorganism carrying disruptions of multiple genes and a method of producing thereof” (KIKKOMAN CORPORATION, priority 2018, dated 2025).

Tests used:
[1] = tested on: Aspergillus sojae NBRC4239 strain; assay: Growth on potato dextrose agar containing 5-FAA and 1 mM tryptophan; format: cell-based
Description: (§1) The AstrpC-disrupted strain and Aspergillus sojae NBRC4239 strain as a control were inoculated onto the plates of potato dextrose agar medium (Nissui Pharmaceutical Co., Ltd.) containing 0.04% (w/v) 5-FAA and 1 mM tryptophan, respectively. The plates were incubated at 30° C. for 4 days. […] In addition, 5-FAA (5-fluoroanthranilic acid; Tokyo Chemical Industry Co., Ltd.) was prepared to become a 10% solution using ethanol, and the solution was added to the medium to ensure that the final concentration became the above-mentioned concentration.
(§2) When the concentration of 5-FAA was changed to 0.02% (w/v), both AstrpC-disrupted and NBRC4239 strains grew on the plates.

AstrpC-disrupted strain = assay: as above; format: cell-based, Aspergillus sojae
Description: as §1, §2

[2] = tested on: Aspergillus oryzae RIB40 strain; assay: Growth on Sabouraud Dextrose Agar containing 5-FAA and 1 mM tryptophan; format: cell-based
Description: (§3) The AotrpC-disrupted strain and Aspergillus oryzae RIB40 strain as a control were inoculated onto the plates of Sabouraud Dextrose Agar medium (BD) containing 0.12% (w/v) 5-FAA and 1 mM tryptophan, respectively. The plates were incubated at 30° C. for 4 days.
(§4) When the concentration of 5-FAA was changed to 0.1% (w/v), both the AotrpC-disrupted and RIB40 strains grew on the plates.

AotrpC-disrupted strain = assay: as above; format: cell-based, Aspergillus oryzae
Description: as §3, §4

[3] = 0.04% (w/v) 5-FAA, 30° C., 4 days
[4] = 0.12% (w/v) 5-FAA, 30° C., 4 days

Q: Which results are given for `Nc1ccc(F)cc1C(=O)O` [5-FAA, 5-fluoroanthranilic acid]?
A: growth of NBRC4239 strain ([1]; 0.02% (w/v) 5-FAA): grew; growth of NBRC4239 strain [1, 3]: did not grow at all; growth of AstrpC-disrupted strain (AstrpC-disrupted strain; 0.02% (w/v) 5-FAA): grew; growth of AstrpC-disrupted strain (AstrpC-disrupted strain; [3]): grew; growth of RIB40 strain ([2]; 0.1% (w/v) 5-FAA): grew; growth of RIB40 strain [2, 4]: did not grow at all; growth of AotrpC-disrupted strain (AotrpC-disrupted strain; 0.1% (w/v) 5-FAA): grew; growth of AotrpC-disrupted strain (AotrpC-disrupted strain; [4]): grew
